Measurements from US11046954B2, “Targeted protein degradation to attenuate adoptive T-cell therapy associated adverse inflammatory responses” (Dana-Farber Cancer Institute, Inc., priority 2015, dated 2021).
Entries after “also recorded” stand apart in the source; their conditions may differ.

What was measured:
[1] = system: downstream surrogates of KRAS signaling (e.g. pMEK and pAKT); experiment: Immunoblot of NIH3T3 cells expressing FKBP*-KRASG12V: downstream KRAS signaling; type: cell-based
Experimental: (§1) FIG. 19 is an immunoblot of NIH3T3 cells expressing KRASG12V allele fused to FKBP* in the N-terminus or C-terminus. Cells were treated with 500 nM dFKBP7 for the indicated time. Cells were harvested and immunoblotted to measure degradation of FKBP*-KRASG12V and downstream surrogates of KRAS signaling (e.g. pMEK and pAKT).
(§2) FIG. 20 is an immunoblot of NIH3T3 cells expressing FKBP* fused to the N-terminus of KRASG12V treated with luM of the indicated dFKBP heterobifunctional compounds for 24 hours. Cells were harvested and immunoblotted to measure degradation of FKBP*-KRASG12V and downstream surrogates of KRAS signaling (e.g. pMEK and pAKT).
as §2, with “21” for “20”, “with” for “with luM of”, “concentrations of dFKBP13” for “dFKBP heterobifunctional compounds”
(§3) FIG. 22 is an immunoblot of NIH3T3 cells expressing FKBP* fused to the N-terminus of KRASG12V treated with luM dFKBP13 for the indicated time. Cells were harvested and immunoblotted to measure degradation of FKBP*-KRASG12V and downstream surrogates of KRAS signaling (e.g. pMEK and pAKT).
(§4) Cells were treated with 500 nM dFKBP7 for the indicated time. Cells were harvested and immunoblotted to measure degradation of FKBP*-KRAS and downstream surrogates of KRAS signaling (e.g. pMEK and pAKT).
(§5) Western blotting of NIH3T3 cells expressing dTAG-KRASG12V were treated with 1 μM of the indicated dFKBP heterobifunctional compounds for 24 hours. Cells were harvested and immunoblotted to measure degradation of FKBP*-KRAS and downstream surrogates of KRAS signaling (e.g. pMEK and pAKT).
(§6) Western blotting of NIH3T3 cells expressing FKBP* fused to the N-terminus of KRAS treated with the indicated concentrations of dFKBP13 for 24 hours. Cells were harvested and immunoblotted to measure degradation of FKBP*-KRAS and downstream surrogates of KRAS signaling (e.g. pMEK and pAKT).
(§7) To evaluate the kinetic control of targeted degradation of dTAG-KRAS, dFKBP13 was administered by increased duration. Western blotting of NIH3T3 cells expressing FKBP* fused to the N-terminus of KRAS treated with 1 μM dFKBP13 for the indicated time. Cells were harvested and immunoblotted to measure degradation of FKBP*-KRAS and downstream surrogates of KRAS signaling (e.g. pMEK and pAKT).

FKBP*-KRASG12V = experiment: Immunoblot of NIH3T3 cells expressing FKBP* fused to KRASG12V: degradation; type: cell-based
Experimental: as §1, §2
as §3, with “21” for “22”, “the indicated concentrations of” for “luM”, “24 hours.” for “the indicated time.”
as §3, §4, §5, §6, §7

FKBP* = target: T1, FKBP* (Homo sapiens, UniProt P62942, F37V); experiment: Immunoblot of 293FT cells (CRBN-WT or CRBN−/−) expressing HA-tagged FKBP*; type: cell-based; details: for degradation of FKBP*: 100 nM
T1 construct: HA; expressed in transfected cells; host or cells: 293FT cells (CRBN-WT or CRBN-/-)
Experimental: (§8) FIG. 6 is an immunoblot of cells treated with bi-functional molecules described in the present invention. 293FT cells (CRBN-WT or CRBN−/−) expressing either HA-tagged FKBP12WT or FKBP* (also referred to as dFKBP12* herein) were treated with indicated concentrations of dFKBP7 for 4 hours.
(§9) Isogenic 293FT cells (CRBN-WT or CRBN−/−) expressing either FKBP12WT or FKBP* were treated with 100 nM of either dFKBP7 or dFKBP13 for 4 hours.
Isogenic 293FT cells (CRBN-WT or CRBN−/−) expressing HA-tagged FKBP* were treated with the indicated dose of dFKBP13 for 4 hours.
293FT cells (CRBN-WT) expressing HA-tagged FKBP* were treated with 100 nM dFKBP13 for the indicated times. Cells were harvested and protein lysates immunoblotted to measure the kinetics of HA-tagged FKBP* degradation induced by dFKBP13.
(§10) The dTAG is predicated on the selectivity of FKBP* specific ligands over endogenous, wild type FKBP. In 293 T cells expressing wild type FKBP 12 or FKBP*, dFKBP7 induces targeted degradation only in FKBP* expressing cells. An immunoblot of cells treated with bi-functional molecules described in the present invention was performed. 293FT cells (CRBN-WT or CRBN−/−) expressing either HA-tagged FKBP12WT or FKBP* were treated with indicated concentrations of dFKBP7 for 4 hours.
In 293T cells expressing wild type FKBP12 or FKBP*, treatment with dFKBP7 and dFKBP13 induces targeted degradation only in FKBP* expressing cells. Isogenic 293FT cells (CRBN-WT or CRBN−/−) were engineered to express either FKBP12WT or FKBP*. Cells were treated with 100 nM of either dFKBP7 or dFKBP13 for 4 hours before lysates were prepared for western immunoblot analysis.
In an effort to define the optimal concentration of dFKB13 heterobifunctional compounds to induce degradation of FKBP*, degradation was measured upon treatment with increasing concentrations of dFKBP13. Isogenic 293FT cells (CRBN-WT or CRBN−/−) were engineered to expressed HA-tagged FKBP*. Cells were treated with the indicated dose of dFKBP13 for 4 hours before lysates were prepared for western immunoblot analysis.
To evaluate the kinetic control of targeted degradation FKBP*, dFKBP13 was administered by increased duration. 293FT cells (CRBN-WT) were engineered to express HA-tagged FKBP*. Cells were treated with 100 nM dFKBP13 for the indicated times. Cells were harvested and protein lysates immunoblotted to measure the kinetics of HA-tagged FKBP* degradation induced by dFKBP 13.

[2] = system: indicated proteins fused to mutant FKBP*; experiment: Immunoblot of MV4;11 leukemia cells expressing proteins fused to mutant FKBP* with an HA tag; details: 16 hours, indicated concentrations
Source text: Immunoblots of MV4; 11 leukemia cells expressing indicated proteins fused to mutant FKBP* with an HA tag.
To test the general utility of the dTAG technology across several protein types, the indicated proteins fused to the dTAG in MV4; 11 leukemia cells were expressed.

FKBP12WT = target: T2, FKBP12WT (Homo sapiens, UniProt P62942); experiment: Immunoblot of 293FT cells (CRBN-WT or CRBN−/−) expressing FKBP12WT; type: cell-based; details: for degradation of FKBP12WT or endogenous FKBP12: isogenic 293FT CRBN-WT or CRBN−/−, 100 nM, 4 hours
T2 construct: HA; expressed in transfected cells; host or cells: 293FT cells (CRBN-WT or CRBN-/-)
Experimental: as §8, §9
as §10, with “In 293 T cells expressing wild type FKBP 12 or FKBP*, dFKBP7 induces targeted degradation only in FKBP* expressing cells.” left out
Isogenic 293FT cells (CRBN-WT or CRBN−/−) were engineered to express either FKBP12WT or FKBP*. Cells were treated with 100 nM of either dFKBP7 or dFKBP13 for 4 hours before lysates were prepared for western immunoblot analysis.

[3] = 293FT CRBN-WT or CRBN−/−, indicated concentrations of dFKBP7, 4 hours
[4] = isogenic 293FT CRBN-WT or CRBN−/−, 4 hours

T1 sequence (P62942 whole entry F37V): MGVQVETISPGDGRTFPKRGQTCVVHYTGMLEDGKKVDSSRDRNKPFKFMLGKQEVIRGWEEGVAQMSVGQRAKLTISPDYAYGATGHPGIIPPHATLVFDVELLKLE
T2 sequence (P62942 whole entry): as the sequence (P62942 whole entry F37V) above, with V37F counted along it

Row | SMILES | downstream p-AKT signal ([1]; NIH3T3 N-terminal dTAG-KRAS, 500 nM dFKBP7, indicated time) | degradation of FKBP*-KRASG12V (FKBP*-KRASG12V; 500 nM dFKBP7, indicated time, N-terminal fusion) | degradation of HA-tagged FKBP* (FKBP*; [3]) | degradation of FKBP* (FKBP*; [4]) | degradation of proteins fused to dTAG (FKBP*) [2] | degradation of HA-tagged FKBP12WT (FKBP12WT; [3]) | degradation of FKBP12WT or endogenous FKBP12 (FKBP12WT) | inhibition of downstream signaling (pMEK, pAKT) ([1]; NIH3T3 FKBP*-KRASG12V, 1 μM, 24 hours) | IC50 ([1]; NIH3T3 FKBP*-KRASG12V, indicated concentrations of dFKBP13, 24 hours, read-out: IC50, inhibits downstream signaling) [nM] | time at which degradation of FKBP*-KRASG12V and inhibition of downstream signaling are seen (FKBP*-KRASG12V; 1 μM dFKBP13, indicated time) [h] | degradation of FKBP*-KRASG12V (FKBP*-KRASG12V; 1 μM, 24 hours) | degradation of FKBP*-KRASG12V (FKBP*-KRASG12V; indicated concentrations of dFKBP13, 24 hours) | degradation of HA-tagged FKBP*, dose dependence (FKBP*; isogenic 293FT CRBN-WT or CRBN−/−, indicated dose, 4 hours)
1 | CC[C@H](C(=O)N1CCCC[C@H]1C(=O)O[C@H](CCc1ccc(OC)c(OC)c1)c1cccc(OCC(=O)NCCCOCCOCCOCCCNC(=O)COc2cccc3c2C(=O)N(C2CCC(=O)NC2=O)C3=O)c1)c1cc(OC)c(OC)c(OC)c1 (stereo partly shown) [dFKBP7] | downstream decrease in p-AKT signal | potent degradation; also recorded: N-terminal FKBP* fusions are active and degraded | CRBN-dependent degradation of FKBP* | CRBN-dependent degradation of FKBP* | degradation was observed with nanomolar concentrations | not FKBPWT | not FKBP12WT or endogenous FKBP12 | – | – | – | – | – | –
2 | CC[C@H](C(=O)N1CCCC[C@H]1C(=O)O[C@H](CCc1ccc(OC)c(OC)c1)c1cccc(OCC(=O)NCCCCCCOc2cccc3c2C(=O)N(C2CCC(=O)NC2=O)C3=O)c1)c1cc(OC)c(OC)c(OC)c1 (stereo partly shown) [dFKBP13] | – | – | – | CRBN-dependent degradation of FKBP* | degradation was observed with nanomolar concentrations | – | not FKBP12WT or endogenous FKBP12 | inhibition of downstream signaling | > 100 | ≤ 1 | potent degradation | potently degrades dTAG-KRAS at nanomolar concentrations; also recorded: potent degradation | dose- and CRBN-dependent degradation
